# From patent US20100234417A1, “THYROTROPIN RELEASING HORMONE RECEPTOR-OREXIN RECEPTOR HETERO-DIMERS/-OLIGOMERS” (DIMERIX BIOSCIENCE PTY LTD., priority 2006, published 2010)
# Assays:
# [1] = test system: thyrotropin releasing hormone receptor/orexin receptor hetero-dimer/-oligomer (TRHR with OxR2); experiment: eBRET/BRET detection of TRHR-OxR2 association: TRHR/Rluc + tagged beta-arrestin + OxR2 as IG3 in HEK293 cells; format: cell-based; details: OxR2, FIG. 6
# Protocol: (§1) Briefly, referring to FIGS. 1 to 3, the IGs are provided in the form of the two receptors (TRHR and OxR). One of the two is attached to an RC (IG1-RC1, IG3). A second IG (IG2-RC2) is derived from a molecule that interacts with the receptors upon ligand binding (e.g. beta-arrestin, or a mutant thereof).
# Cells were seeded in 6-well plates at a density of approximately 630,000 cells/well (HEK293FT) or approximately 150,000 cells/well (COS-7) and maintained at 37° C., 5% CO2 in Complete Media (DMEM containing 0.3 mg/ml glutamine, 100 IU/ml penicillin and 100 μg/ml streptomycin (Gibco)) supplemented with 10% fetal calf serum (FCS; Gibco). Transient transfections were carried out 24 h after seeding using GeneJuice (Novagen) or Metafectene (Biontex) according to manufacturer instructions. 24 h post-transfection, cells were washed with PBS, detached using 0.05% trypsin/0.53 mM EDTA, resuspended in HEPES-buffered phenol red free Complete Media containing 5% FCS and added to a poly-L-lysine-coated white microplate (Nunc). 48 h post-transfection, eBRET assays were carried out following pre-incubation of cells with EnduRen™ (Promega) at a final concentration of 30-40 μM, at 37° C., 5% CO2 for 2 h. For original BRET studies, the HEPES-buffered phenol red free Complete Media was replaced with PBS and coelenterazine h (Molecular Probes) added to a final concentration of 5 μM immediately prior to commencing the assay. […] Filtered light emissions were sequentially measured for 3-5 s in each of the ‘donor wavelength window’ (400-475 nm) and ‘acceptor wavelength window’ (>500 nm for EGFP or 520-540 nm for EYFP, Topaz (TYFP) or Venus). The BRET signal observed between interacting proteins is normalized by subtracting the background BRET ratio. […] In the following examples, the first calculation will be used, unless the signal is described as the ‘ligand-induced BRET ratio’. […] In this case, data are shown as ‘fluorescence/luminescence’ being the ratio of light emission through the ‘acceptor wavelength window’ over the 400-475 nm emission for a particular cell sample. Unless otherwise stated, BRET signals were measured in 96-well microplates. […]
# Cells not pretreated with antagonist were pretreated with PBS instead for the same amount of time. […]
# [2] = test system: thyrotropin releasing hormone receptor/orexin receptor hetero-dimer/-oligomer (TRHR with OxR1); experiment: eBRET: TRHR/Rluc + barr2/Venus + OxR1 as IG3 in HEK293 cells; format: cell-based; details: OxR1, FIG. 6
# Protocol: as §1
# Cells were seeded in 6-well plates at a density of approximately 630,000 cells/well (HEK293FT) or approximately 150,000 cells/well (COS-7) and maintained at 37° C., 5% CO2 in Complete Media (DMEM containing 0.3 mg/ml glutamine, 100 IU/ml penicillin and 100 μg/ml streptomycin (Gibco)) supplemented with 10% fetal calf serum (FCS; Gibco). Transient transfections were carried out 24 h after seeding using GeneJuice (Novagen) or Metafectene (Biontex) according to manufacturer instructions. 24 h post-transfection, cells were washed with PBS, detached using 0.05% trypsin/0.53 mM EDTA, resuspended in HEPES-buffered phenol red free Complete Media containing 5% FCS and added to a poly-L-lysine-coated white microplate (Nunc). 48 h post-transfection, eBRET assays were carried out following pre-incubation of cells with EnduRen™ (Promega) at a final concentration of 30-40 μM, at 37° C., 5% CO2 for 2 h. For original BRET studies, the HEPES-buffered phenol red free Complete Media was replaced with PBS and coelenterazine h (Molecular Probes) added to a final concentration of 5 μM immediately prior to commencing the assay. […] Filtered light emissions were sequentially measured for 3-5 s in each of the ‘donor wavelength window’ (400-475 nm) and ‘acceptor wavelength window’ (>500 nm for EGFP or 520-540 nm for EYFP, Topaz (TYFP) or Venus). The BRET signal observed between interacting proteins is normalized by subtracting the background BRET ratio. […] In this case, data are shown as ‘fluorescence/luminescence’ being the ratio of light emission through the ‘acceptor wavelength window’ over the 400-475 nm emission for a particular cell sample. Unless otherwise stated, BRET signals were measured in 96-well microplates. […]
# [3] = test system: animals studied (narcolepsy); details: cited from earlier work
# [4] = 10^−6M SB-334867-A approx. 40 minutes before 10^−6M OxA
# [5] = 10^−6M SB-334867-A approx. 40 minutes before 10^−6M TRH and OxA
# [6] = dose- and time-dependent manner
SMILES,"effect of antagonist pretreatment on OxA-induced eBRET signal [1, 4]","effect of antagonist pretreatment on TRH + OxA-induced eBRET signal [1, 5]","effect of antagonist pretreatment on OxA-induced eBRET signal [2, 4]","effect of antagonist pretreatment on TRH + OxA-induced eBRET signal [2, 5]","rapid eye movement (REM) sleep [3, 6]","slow wave sleep (SWS) [3, 6]",cataplexy ([3]; in most of the animals studied)
"Cc1nc2ccc(NC(=O)Nc3ccnc4cccnc34)cc2o1.Cl [SB-334867-A, 1-(2-methylbenzoxazol-6-yl)-3-[1,5]naphthyridin-4-yl urea hydrochloride]",not affected,did not differ,reduced,reduced,–,–,–
CN1C(=O)C[C@@H](C(=O)N[C@@H](Cc2c[nH]cn2)C(=O)N2CCC[C@H]2C(N)=O)NC1=O.O.O.O.O [TA-0910],–,–,–,–,significantly reduced,significantly reduced,completely suppressed
